Laboratory results reported in US7049313B2, “ATM inhibitors” (Kudos Pharmaceuticals Ltd., priority 2002, dated 2006).
Entries after “also recorded” stand apart in the source; their conditions may differ.

Columns and labels:
HeLa cells = experiment: Clonogenic survival assay, sensitisation to ionising radiation; type: cell-based, human
Protocol: (§1) Sensitisation of Cells to Ionising Radiation or DNA Double Strand Break Chemotherapies
(§2) The HeLa line was used for ionising radiation studies while LoVo was used for studies with chemotherapeutic agents. […] After 1 hour, a concentration range of either etoposide (FIG. 2), camptothecin (FIG. 3) or doxorubicin (FIG. 4) was added. […] For all treatments, after a further 16 hours incubation, drug containing media was removed and fresh media added prior to a further incubation of 10 days before the staining of colonies with Giemsa. All compounds were solubilised in DMSO, with a final concentration on cells of no more than 0.1%. Resulting colonies containing >50 cells were counted as positives.

LoVo cells = experiment: Clonogenic survival assay, sensitisation to DNA double strand break chemotherapeutics; type: cell-based, human; details: 10 μM of compound
Protocol: as §1, §2

HIV-1 [1] = experiment: HIV-1 based luciferase assay (LUCIA) on Jurkat T-cells; type: cell-based; details: FIG. 5
HIV-1 [2] = experiment: HIV-1 based LUCIA, all other cell lines tested; details: Human immunodeficiency virus 1
Text: Retroviral Transductions (LUCIA).

HIV-1 RT = target: T1, HIV-1 RT (Human immunodeficiency virus type 1 group M subtype B, UniProt P04585); experiment: Chemilluminescent HIV-1 reverse transcriptase assay; type: biochemical; details: FIG. 6
T1 construct: chemilluminescent HIV-1 reverse transcriptase assays
Text: Control RT inhibition using nevirapine (□) is also shown.

HIV-1 HXB2 wild type = experiment: HIV-1 4-day replication assay, wild type strain (p24 antigen ELISA); type: cell-based; details: for IC50: Human immunodeficiency virus 1, HXB2, 96 h, C8166 T-cells, 4-day replication, p24
Protocol: (§3) HIV-1 4-day Replication Assays
(§4) C8166 T-cells were washed and infected with HIV-1 (strains HXB2wt and HXB2AZTres, RT amino acid changes 67N, 70R, 215F, 219Q) at low multiplicity of infection for one hour at room temperature. The cells were then washed and distributed (5×10^4 cells/well) in triplicate into the wells of 96-well cell culture plates containing different concentrations of inhibitors. The plates were then incubated at 37° C. for 4 days. The cell-free culture fluid was then harvested and assayed for levels of p24 viral antigen using a commercially available ELISA kit (Murex), according to the manufacturers' instructions. Cytotoxicity was evaluated by distributing (5×10^4 cells/well) uninfected C8166 T-cells into triplicate wells of 96-well cell culture plates containing different concentrations of inhibitor and incubating the plates at 37° C. After 4 days, 25 μl of XTT, which is metabolised by viable but not dead cells was added and the plates incubated for a further 3 hours at 37° C. Finally, the absorbance was read at a wavelength of 450 nm.

HIV-1 HXB2 AZT resistant = experiment: microbe, parasite or virus in culture; type: cell-based; details: for IC50: Human immunodeficiency virus 1, HXB2, C8166, 96 h, read-out: HIV-1 HXB2 (IC50 μM) AZT resistant
Protocol: as §3, §4

[3] = Cytotoxicity on uninfected C8166 T-cells (XTT dye reduction); type: cell-based; details: human, uninfected C8166 T-cells, read-out: 50% cytotoxic concentration (CC50)
Protocol: as §4

C8166 T-cells = experiment: as above; type: cell-based; details: 4 days, XTT, FIG. 8C
Protocol: as §4

ATM = target: T2, ATM (Homo sapiens, UniProt Q13315); experiment: In vitro ATM inhibition assay (phosphorylation of GSTp53N66 on serine 15); type: biochemical
T2 construct: ATM protein was immunoprecipitated from HeLa cell nuclear extract; endogenous in cells; host or cells: HeLa cell nuclear extract (immunoprecipitate)
T2 sequence (Q13315 whole entry): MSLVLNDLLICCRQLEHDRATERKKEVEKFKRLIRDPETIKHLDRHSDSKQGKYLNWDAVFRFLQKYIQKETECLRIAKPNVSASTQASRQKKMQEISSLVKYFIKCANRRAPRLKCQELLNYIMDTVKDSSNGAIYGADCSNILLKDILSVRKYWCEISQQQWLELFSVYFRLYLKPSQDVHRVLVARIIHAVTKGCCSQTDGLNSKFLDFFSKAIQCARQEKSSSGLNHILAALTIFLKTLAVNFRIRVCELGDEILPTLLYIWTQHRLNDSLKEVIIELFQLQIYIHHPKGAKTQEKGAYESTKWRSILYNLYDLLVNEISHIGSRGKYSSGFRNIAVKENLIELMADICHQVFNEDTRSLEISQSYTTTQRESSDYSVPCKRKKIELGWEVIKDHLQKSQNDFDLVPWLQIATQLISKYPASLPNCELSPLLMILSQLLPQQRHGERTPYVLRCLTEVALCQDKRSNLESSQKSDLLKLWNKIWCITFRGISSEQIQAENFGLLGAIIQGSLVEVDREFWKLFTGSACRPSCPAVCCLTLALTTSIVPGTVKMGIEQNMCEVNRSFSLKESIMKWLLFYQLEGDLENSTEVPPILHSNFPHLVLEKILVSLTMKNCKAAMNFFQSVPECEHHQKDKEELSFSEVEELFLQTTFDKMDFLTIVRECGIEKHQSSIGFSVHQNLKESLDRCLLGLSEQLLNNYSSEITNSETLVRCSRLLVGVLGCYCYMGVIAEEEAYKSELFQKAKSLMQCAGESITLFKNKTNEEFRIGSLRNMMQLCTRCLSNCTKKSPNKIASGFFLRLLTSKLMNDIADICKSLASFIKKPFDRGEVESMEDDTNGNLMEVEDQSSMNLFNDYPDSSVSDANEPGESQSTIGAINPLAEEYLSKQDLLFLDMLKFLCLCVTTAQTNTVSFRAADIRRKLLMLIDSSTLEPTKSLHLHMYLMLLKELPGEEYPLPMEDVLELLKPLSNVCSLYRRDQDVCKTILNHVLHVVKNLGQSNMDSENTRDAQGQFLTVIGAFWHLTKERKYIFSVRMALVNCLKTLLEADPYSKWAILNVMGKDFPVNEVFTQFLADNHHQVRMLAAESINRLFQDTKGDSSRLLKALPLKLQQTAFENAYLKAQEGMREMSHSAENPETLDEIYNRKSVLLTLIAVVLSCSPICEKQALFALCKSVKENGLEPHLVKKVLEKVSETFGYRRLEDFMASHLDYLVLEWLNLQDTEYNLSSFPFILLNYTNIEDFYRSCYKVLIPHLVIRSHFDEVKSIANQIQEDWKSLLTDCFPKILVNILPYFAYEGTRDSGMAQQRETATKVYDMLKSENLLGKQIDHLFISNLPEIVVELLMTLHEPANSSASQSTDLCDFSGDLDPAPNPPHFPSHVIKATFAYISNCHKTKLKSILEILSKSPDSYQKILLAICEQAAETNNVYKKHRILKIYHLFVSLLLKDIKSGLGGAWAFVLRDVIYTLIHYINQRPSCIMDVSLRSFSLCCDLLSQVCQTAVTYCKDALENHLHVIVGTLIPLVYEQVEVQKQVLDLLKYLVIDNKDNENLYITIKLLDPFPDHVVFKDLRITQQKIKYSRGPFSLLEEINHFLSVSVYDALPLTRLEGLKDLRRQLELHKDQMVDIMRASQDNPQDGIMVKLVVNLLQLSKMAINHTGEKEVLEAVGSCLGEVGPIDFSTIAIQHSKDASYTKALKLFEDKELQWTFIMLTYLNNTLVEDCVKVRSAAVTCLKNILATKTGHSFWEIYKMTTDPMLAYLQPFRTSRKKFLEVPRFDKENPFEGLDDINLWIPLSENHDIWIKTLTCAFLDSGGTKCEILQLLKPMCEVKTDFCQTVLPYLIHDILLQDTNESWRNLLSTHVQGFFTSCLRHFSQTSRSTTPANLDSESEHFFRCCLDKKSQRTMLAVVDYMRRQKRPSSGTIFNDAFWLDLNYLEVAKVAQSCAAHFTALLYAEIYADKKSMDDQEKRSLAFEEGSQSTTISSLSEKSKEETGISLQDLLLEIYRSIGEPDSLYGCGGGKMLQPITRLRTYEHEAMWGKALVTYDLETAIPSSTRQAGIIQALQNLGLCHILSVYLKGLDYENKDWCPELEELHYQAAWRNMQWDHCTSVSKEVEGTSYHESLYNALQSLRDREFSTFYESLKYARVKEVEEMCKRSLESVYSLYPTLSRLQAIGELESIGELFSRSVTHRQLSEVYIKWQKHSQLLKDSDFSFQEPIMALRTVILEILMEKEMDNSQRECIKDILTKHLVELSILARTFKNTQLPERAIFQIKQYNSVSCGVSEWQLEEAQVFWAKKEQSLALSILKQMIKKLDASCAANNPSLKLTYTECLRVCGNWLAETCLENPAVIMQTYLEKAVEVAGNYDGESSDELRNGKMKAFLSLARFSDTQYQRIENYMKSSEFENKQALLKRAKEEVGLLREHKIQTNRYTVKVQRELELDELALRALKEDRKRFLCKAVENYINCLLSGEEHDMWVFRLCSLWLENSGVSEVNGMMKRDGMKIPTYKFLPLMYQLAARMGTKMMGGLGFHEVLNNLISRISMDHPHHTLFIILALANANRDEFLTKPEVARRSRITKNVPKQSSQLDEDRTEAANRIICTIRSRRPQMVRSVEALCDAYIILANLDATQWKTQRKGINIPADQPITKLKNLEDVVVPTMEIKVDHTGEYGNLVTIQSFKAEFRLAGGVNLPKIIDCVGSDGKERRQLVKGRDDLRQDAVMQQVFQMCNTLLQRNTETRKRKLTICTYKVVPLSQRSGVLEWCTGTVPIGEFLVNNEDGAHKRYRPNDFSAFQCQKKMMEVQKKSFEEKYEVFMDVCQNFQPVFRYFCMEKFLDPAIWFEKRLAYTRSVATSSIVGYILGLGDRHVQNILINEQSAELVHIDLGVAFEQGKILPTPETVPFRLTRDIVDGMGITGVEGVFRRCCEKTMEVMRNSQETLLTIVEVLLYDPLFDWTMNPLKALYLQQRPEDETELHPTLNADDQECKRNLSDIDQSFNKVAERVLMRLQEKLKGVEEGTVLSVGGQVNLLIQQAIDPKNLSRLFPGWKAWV

O=c1cc(-c2cccc3c2Sc2ccccc2S3)oc(N2CCOCC2)c1 [Compound 4, 2-Thianthren-1-yl-6-morpholin-4-yl-pyran-4-one]
sensitisation of cells to ionising radiation (% survival) (HeLa cells; HeLa cells, compound at 0.5 μM and 2 μM, FIG. 1): can sensitise cells to ionising radiation | sensitising tumour derived cell lines to DNA double strand break inducing agents (HeLa cells; summary of FIGS. 1–4 (HeLa and LoVo)): significant effect on sensitising tumour derived cell lines to DNA double strand break inducing agents | sensitisation of cells to etoposide (% survival) (LoVo cells; FIG. 2): can sensitise cells to etopside | sensitisation of cells to camptothecin (% survival) (LoVo cells; FIG. 3): can sensitise cells to camptothecin | sensitisation of cells to doxorubicin (% survival) (LoVo cells; FIG. 4): can sensitise cells to doxorubicin | IC50 (HIV-1 [1]; Human immunodeficiency virus 1, Jurkat, read-out: IC50 in HIV-1 based LUCIA, Jurkat T-cells): ~1000 nM | inhibition of retroviral vector transduction (LUCIA) (HIV-1 [1]; Jurkat T-cells): can inhibit recombinant retroviral vector infections; also recorded: efficiently inhibit HIV-1 LUCIA at low micromolar concentrations | IC50 (HIV-1 [2]): 1000 to 10000 nM | inhibition of HIV-1 RT (HIV-1 RT): does not inhibit HIV-1 RT | inhibition of HIV-1 replication (HIV-1 HXB2 wild type; 4-day replication assays, FIG. 8): inhibits HIV-1 replication | IC50 (HIV-1 HXB2 wild type): 0.1 µM | inhibition of HIV-1 replication, wild-type versus AZT resistant strain (HIV-1 HXB2 AZT resistant; 4-day replication assays, FIG. 8A, 8B): inhibits HIV-1 replication equally well in both wild-type and AZT resistant HIV-1 strains; also recorded: inhibited HIV-1 replication equally well | IC50 (HIV-1 HXB2 AZT resistant): 0.06 µM | CC50 at 4 days [3]: > 20000 nM | cytotoxicity (percentage of viable cells) (C8166 T-cells): No significant cytotoxicity; also recorded: no significant cytotoxic effects

Cc1cn([C@H]2C[C@H](N=[N+]=[N-])[C@@H](CO)O2)c(=O)[nH]c1=O [AZT, 3′-azido-3′-deoxythymidine, reference compound]
IC50 (HIV-1 HXB2 wild type): 0.002 µM | IC50 (HIV-1 HXB2 AZT resistant): 0.05 µM

O=C(CCNCC1CCCO1)Nc1ccc2c(c1)Cc1cccc(-c3cc(=O)cc(N4CCOCC4)o3)c1S2 (stereo not shown) [Compound 86]
IC50 (ATM): < 200 nM

CN1CCN(NC(=O)c2ccc3c(c2)Sc2cccc(-c4cc(=O)cc(N5CCOCC5)o4)c2S3)CC1 [Compound 164]
IC50 (ATM): < 200 nM

CN1CCN(CC(=O)Nc2ccc3c(c2)Cc2cccc(-c4cc(=O)cc(N5CCOCC5)o4)c2S3)CC1 [Compound 53]
IC50 (ATM): < 200 nM

COCC(=O)CC(=O)Nc1ccc(-c2cc(=O)cc(N3CCOCC3)o2)c2c1Cc1ccccc1S2 [Compound 124]
IC50 (ATM): < 200 nM

O=C(NN1CCOCC1)c1ccc2c(c1)Sc1cccc(-c3cc(=O)cc(N4CCOCC4)o3)c1S2 [Compound 165]
IC50 (ATM): < 200 nM
